Laboratory results: US9180160B2, “Complement inhibitors for treatment of injury from intracerebral hemorrhage” (The Trustees of the University of Pennsylvania, priority 2008, dated 2015)
Entries after “also recorded” stand apart in the source; their conditions may differ.

What was measured:
Type in all cases: in vivo
[1] = system: C57BL/6J mice subjected to ICH; experiment: 28-point neurological function score after ICH (autologous blood infusion)
Description: (§1) Animal Preparation and Intracerebral Infusion. Adult male C57BL/6J mice weighing 23-30 g were used. Mice were randomized to receive intraperitoneal injection of either C3aRA (1 mg/kg) (SB290157, Calbiochem, Darmstadt, Germany) diluted in PBS and DMSO (1.16% v/v), or an equal volume of vehicle (PBS and DMSO, 1.16% DMSO v/v) either 45 minutes prior to ICH induction or 6 and 12 hours after induction of ICH, followed in both cohorts by twice daily doses for 72 hours. […] Sham animals were given PBS and DMSO (1.16% v/v) in the same manner.
Mice were anesthetized with a single intraperitoneal dose of ketamine (90 mg/kg) and xylazine (5 mg/kg). Next, the mice were placed in a stereotactic frame (ASI Instruments, Inc., Warren, Mich., USA) and subjected to ICH using autologous blood infusion as previously described (Rynkowski M A et al, 2008, Nat Protoc 3: 122-128), Briefly, a 1-mm burr hole was drilled 2.3 mm lateral to the midline and 0.2 mm anterior to the bregma. Thirty μL of autologous whole blood were drawn from the tail artery into a capillary tube. A 30-gauge needle was then advanced stereotactically through the burr hole into the right striatum (coordinates: 0.2 mm anterior, 2.3 mm lateral to the bregma, 3.5 mm ventral). Using a microinfusion pump (KDS220, KD Scientific Inc., Holliston, Mass., USA), 5 μL was delivered at a rate of 1.5 μL per minute. After a 7-minute period, an additional 25 μL was delivered at a constant rate of 1.5 μL per minute. […]
Neurofunction and behavioral testing. Sensorimotor function was evaluated by means of the 28-point neurological function score, corner test and forelimb placing tests, which were performed pre-operatively and at 6, 24, 48 and 72 hour post-injury. Navigational memory was evaluated with the means of a Morris water-maze (MWM) test pre-operatively and at 72 hours post ICH. […]
Neurological function. Acute neurological deficits were assessed using a 28-point scoring system including body symmetry, gait, climbing, circling behavior, front limb symmetry, compulsory circling and whisker response. […]

[2] = system: C57BL/6J mice subjected to ICH; experiment: Flow cytometric analysis of granulocyte infiltration and microglial activation after ICH; conditions: then twice daily, mean±SEM
Description: as §1
Mice were anesthetized with a single intraperitoneal dose of ketamine (90 mg/kg) and xylazine (5 mg/kg). Next, the mice were placed in a stereotactic frame (ASI Instruments, Inc., Warren, Mich., USA) and subjected to ICH using autologous blood infusion as previously described (Rynkowski M A et al, 2008, Nat Protoc 3: 122-128), Briefly, a 1-mm burr hole was drilled 2.3 mm lateral to the midline and 0.2 mm anterior to the bregma. Thirty μL of autologous whole blood were drawn from the tail artery into a capillary tube. A 30-gauge needle was then advanced stereotactically through the burr hole into the right striatum (coordinates: 0.2 mm anterior, 2.3 mm lateral to the bregma, 3.5 mm ventral). Using a microinfusion pump (KDS220, KD Scientific Inc., Holliston, Mass., USA), 5 μL was delivered at a rate of 1.5 μL per minute. After a 7-minute period, an additional 25 μL was delivered at a constant rate of 1.5 μL per minute. After a period of 10 minutes, the needle was slowly removed, the burr hole was occluded with bone wax and the skin incision was closed with Nexaband® (Abbott Laboratories, North Chicago, Ill.). Sham animals received only needle insertion. […]
Preparation of brains. Both cerebral hemispheres were analyzed for inflammatory cells using flow cytometry. […]
Flow cytometric analysis. […] Flow cytometric analysis was carried out using a FACSCalibur (BD Biosciences, Franklin Lakes, N.J., USA), and the data were analyzed using FlowJo software (Tree Star, Ashland, Oreg., USA). […]

[3] = system: C57BL/6J mice subjected to ICH; experiment: Histopathology, hematoma (lesion) volume after ICH; conditions: 1 mg/kg i.p. 45 minutes prior to ICH, then twice daily; 72 hours after ICH; mean±SEM
Description: as §1
Mice were anesthetized with a single intraperitoneal dose of ketamine (90 mg/kg) and xylazine (5 mg/kg). Next, the mice were placed in a stereotactic frame (ASI Instruments, Inc., Warren, Mich., USA) and subjected to ICH using autologous blood infusion as previously described (Rynkowski M A et al, 2008, Nat Protoc 3: 122-128), Briefly, a 1-mm burr hole was drilled 2.3 mm lateral to the midline and 0.2 mm anterior to the bregma. Thirty μL of autologous whole blood were drawn from the tail artery into a capillary tube. […]
Histopathology and determination of lesion volume. […] Striatal lesion volume was determined by digitizing serial coronal sections ([…]) to span the entire hematoma. […] Volume of the lesion (mm^3) was then determined by summation of the lesion area in each coronal section and integrating over the section depth of 0.5 mm.

[4] = 1 mg/kg i.p. first at 6 h and 12 h after ICH, then twice daily for 72 hours, versus vehicle
[5] = 1 mg/kg i.p. 45 minutes prior to ICH, 72 hours after ICH

Row | Molecule | 28-point neurological score ([1]; 1 mg/kg i.p. 45 minutes prior to ICH, then twice daily, 72 hours after ICH) | 28-point neurological score [1, 4] | activated microglia, hemorrhagic/non-hemorrhagic hemisphere ratio [2, 5] | granulocytes, hemorrhagic/non-hemorrhagic hemisphere ratio [2, 5] | mean hematoma volume [3] [mm^3] | granulocyte infiltration, hemorrhagic/non-hemorrhagic ratio ([2]; 1 mg/kg i.p. first at 6 h and 12 h after ICH, 3 days after ICH)
1 | NC(N)=NCCC[C@H](NC(=O)COCC(c1ccccc1)c1ccccc1)C(=O)O [C3aRA] | no significant deficits compared with sham animals | significant improvement at 24, 48, and 72 hours; also recorded: significant improvement at 24, 48 and 72 hours | 3.67±0.45 | 3.21±0.52 | 12.17±1.33 | –
2 | Acetyl-Phe-[Orn-Pro-D-cyclohexylalanine-Trp-Arg] [C5aRA] | – | significant improvement at 24, 48 and 72 hours | – | – | – | 1.7793±0.36
